Experiment [1] has as its target HA-GST-Rheb (GTP-γ-S loaded) activating mTORC1 (Homo sapiens (Human), UniProt Q15382). Put plainly: Rheb-dependent in vitro kinase assay (Rheb-IVK; LanthaScreen or Western readout). The note with it: Rheb-dependent in vitro kinase assay; read-out: IVK IC50. In kind it is biochemical. Background: TR-FRET usually uses a lanthanide donor and a delayed reading to cut background.

A further experiment concerns the target Rheb (Homo sapiens (Human), UniProt Q15382). Kind of experiment: Affinity Selection Mass Spectrometry (ASMS). Particulars: affinity (R3/R0) in Affinity Selection Mass Spectrometry assay. Type of experiment: binding. In a few lines: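 Affinity selection used 2 μM compound with 60 μM Rheb and 180 μM GDP for 30 min at room temperature. After 10 kDa ultrafiltration washes, protein was denatured in MeCN and bound compound quantified by C18 UPLC with Q-TOF MS, against a no-protein control.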

HA-GST-Rheb (GTP-γ-S loaded) activating mTORC1, sequence (Q15382 1-181): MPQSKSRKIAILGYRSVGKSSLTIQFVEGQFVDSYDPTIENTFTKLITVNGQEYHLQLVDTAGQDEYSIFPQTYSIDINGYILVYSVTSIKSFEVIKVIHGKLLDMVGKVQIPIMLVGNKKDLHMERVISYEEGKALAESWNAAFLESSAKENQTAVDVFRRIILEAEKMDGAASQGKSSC
Rheb, sequence (Q15382 1-169 limits assumed): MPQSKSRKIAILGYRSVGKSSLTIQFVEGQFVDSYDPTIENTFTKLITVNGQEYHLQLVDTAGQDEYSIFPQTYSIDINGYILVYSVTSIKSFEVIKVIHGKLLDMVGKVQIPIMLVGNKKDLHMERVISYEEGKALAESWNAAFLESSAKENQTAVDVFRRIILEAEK

Take `Brc1cc(Oc2ccccc2)cc2[nH]ccc12` [I-239, 4-bromo-6-phenoxy-1H-indole]: the IC50 (commonly the concentration that gives 50% inhibition) in experiment [1] lay in the range of 10 to 100 µM. For the same compound, at Rheb, the “ASMS (R3/R0)” value was “B (an affinity (R3/R0) between 100% and 20%)”.
For `OCc1nc2c(OCC3CCC(O)CC3)c(Cl)c(Cl)cc2[nH]1` (stereo not shown) [I-399, 4-((5,6-dichloro-2-(hydroxymethyl)-1H-benzo[d]imidazol-4-yloxy)methyl)cyclohexanol], the IC50 in experiment [1] lay in the range of 10 to 100 µM. Moreover, the “ASMS (R3/R0)” value on Rheb is “C (an affinity (R3/R0)<20%)”.
Regarding `O=C(O)c1cc2c(Sc3ccc(Cl)cc3Cl)cc(Cl)cc2[nH]1` [I-157, 6-chloro-4-(2,4-dichlorophenylthio)-1H-indole-2-carboxylic acid], in experiment [1], the IC50 is below 10 µM. The “ASMS (R3/R0)” value at Rheb was “B (an affinity (R3/R0) between 100% and 20%)”.
`CN1CCCN(C(=O)c2cc3c(Sc4ccc(Cl)cc4)cc(Cl)cc3[nH]2)CC1` [I-83]: the IC50 in experiment [1] was above 100 µM. Besides, the “ASMS (R3/R0)” value on Rheb is “B (an affinity (R3/R0) between 100% and 20%)”.
Take `CN(C)C(=O)c1cccc(Cn2c(C(=O)O)cc3c(Br)cc(Oc4ccccc4)cc32)c1` [I-40, 4-bromo-1-(3-(dimethylcarbamoyl)benzyl)-6-phenoxy-1H-indole-2-carboxylic acid]: the 50% inhibitory concentration (IC50) in experiment [1] was 10 to 100 µM. Moreover, the “ASMS (R3/R0)” value on Rheb was “C (an affinity (R3/R0)<20%)”.
In the case of `O=C(O)c1cc2c(Sc3ccc(Br)cc3)cc(Cl)cc2[nH]1` [I-98, 4-(4-bromophenylthio)-6-chloro-1H-indole-2-carboxylic acid], the IC50 in experiment [1] fell in the range of 10 to 100 µM. Moreover, the “ASMS (R3/R0)” value on Rheb is “B (an affinity (R3/R0) between 100% and 20%)”.
`N#Cc1ccc(-c2nc3cc(Cl)c(Cl)cc3[nH]2)cc1` [I-370, 4-(5,6-dichloro-1H-benzo[d]imidazol-2-yl)benzonitrile]: in experiment [1], the IC50 is 10 to 100 µM. Further, on Rheb, the “ASMS (R3/R0)” value is “B (an affinity (R3/R0) between 100% and 20%)”.
Take `Clc1ccc2nc(-c3ncco3)n(Cc3ccc(-c4nnn[nH]4)cc3)c2c1` [I-411, 2-(1-(4-(1H-tetrazol-5-yl)benzyl)-6-chloro-1H-benzo[d]imidazol-2-yl)oxazole]: the IC50 in experiment [1] was 10 to 100 µM. The “ASMS (R3/R0)” value at Rheb is on record as “C (an affinity (R3/R0)<20%)”.
Regarding `O=C(O)Cn1c(-c2ccnc3[nH]ccc23)nc2c(Sc3ccc(Cl)cc3)c(Cl)ccc21` [I-322], the IC50 in experiment [1] was above 100 µM. Besides, the “ASMS (R3/R0)” value at Rheb was “C (an affinity (R3/R0)<20%)”.
For `CN(C)C(=O)c1ccc(Cn2c(C(=O)O)cc3c(Br)cc(SCc4ccc(Cl)c(Cl)c4)cc32)cc1` [I-18], in experiment [1], the IC50 is above 100 µM. For the same compound, the “ASMS (R3/R0)” value on Rheb was “B (an affinity (R3/R0) between 100% and 20%)”.
Consider `Clc1ccc(Cl)c(Sc2cccc3[nH]ccc23)c1` [I-209, 4-(2,5-dichlorophenylthio)-1H-indole], for which, in experiment [1], the IC50 lay within 10 to 100 µM. In addition, on Rheb, the “ASMS (R3/R0)” value was “B (an affinity (R3/R0) between 100% and 20%)”.
With `OCc1cc2c(Sc3ccc(Oc4ccccc4)cc3)cc(Cl)cc2[nH]1` [I-116, (6-chloro-4-(4-phenoxyphenylthio)-1H-indol-2-yl)methanol], the IC50 in experiment [1] is below 10 µM. For the same compound, the “ASMS (R3/R0)” value on Rheb is “B (an affinity (R3/R0) between 100% and 20%)”.
As for `OCc1nc2cc(Cl)c(OCCc3ccc(Cl)cc3)cc2[nH]1` [I-380, (5-chloro-6-(4-chlorophenethoxy)-1H-benzo[d]imidazol-2-yl)methanol], in experiment [1], the IC50 is 10 to 100 µM. Further, the “ASMS (R3/R0)” value at Rheb was “B (an affinity (R3/R0) between 100% and 20%)”.
With `OCc1cc2c(Cl)cc(Oc3ccccc3)cc2n1Cc1nn[nH]n1` [I-194, (1-((2H-tetrazol-5-yl)methyl)-4-chloro-6-phenoxy-1H-indol-2-yl)methanol], the IC50 in experiment [1] was 10 to 100 µM. In addition, the “ASMS (R3/R0)” value on Rheb was “C (an affinity (R3/R0)<20%)”.
In the case of `O=C1CCc2ccc(Oc3cc(Cl)cc4[nH]c(CO)cc34)cc2N1` [I-59], in experiment [1], the IC50 was above 100 µM. On Rheb, the “ASMS (R3/R0)” value is listed as “C (an affinity (R3/R0)<20%)”.
Regarding `O=C(O)c1cc2c(Cl)cc(-c3ccccc3)cc2[nH]1` [I-48, 4-chloro-6-phenyl-1H-indole-2-carboxylic acid], in experiment [1], the IC50 was 10 to 100 µM. Also, the “ASMS (R3/R0)” value at Rheb is “C (an affinity (R3/R0)<20%)”.
Consider `CC(C)(C)OC(=O)c1ccc(Cn2c(C(=O)O)cc3c(Br)cc(Sc4ccc(Cl)c(Cl)c4)cc32)cc1` [I-109, 4-Bromo-1-(4-(tert-butoxycarbonyl)benzyl)-6-(3,4-dichlorophenylthio)-1H-indole-2-carboxylic acid], for which the IC50 in experiment [1] lay within 10 to 100 µM. Besides, the “ASMS (R3/R0)” value at Rheb is “B (an affinity (R3/R0) between 100% and 20%)”.
Consider `Clc1ccc(Sc2cc(Cl)cc3[nH]ccc23)cc1` [I-180, 6-chloro-4-(4-chlorophenylthio)-1H-indole], for which the IC50 in experiment [1] was in the range of 10 to 100 µM. In addition, the “ASMS (R3/R0)” value at Rheb is “B (an affinity (R3/R0) between 100% and 20%)”.
On to `CN(C)C(=O)c1ccc(Cn2c(C#N)cc3c(Br)cc(Sc4ccc(Cl)c(Cl)c4)cc32)cc1` [I-13], for which the IC50 in experiment [1] was above 100 µM. Moreover, the “ASMS (R3/R0)” value on Rheb is “B (an affinity (R3/R0) between 100% and 20%)”.
In the case of `CN1CCN(c2ccc(NC(=O)c3cc4c(Sc5ccc(Cl)cc5Cl)cc(Cl)cc4[nH]3)cc2F)CC1` [I-113, 6-chloro-4-(2,4-dichlorophenylthio)-N-(3-fluoro-4-(4-methylpiperazin-1-yl)phenyl)-1H-indole-2-carboxamide], the IC50 in experiment [1] is below 10 µM. For the same compound, the “ASMS (R3/R0)” value at Rheb was “C (an affinity (R3/R0)<20%)”.
With `OCc1nc2c(OCC3CC=CC3)c(Cl)c(Cl)cc2[nH]1` [I-377], the IC50 in experiment [1] was above 100 µM. The “ASMS (R3/R0)” value at Rheb is “B (an affinity (R3/R0) between 100% and 20%)”.
For `CC(=O)N[C@@H]1CCCC[C@@H]1COc1c(Cl)c(Cl)cc2[nH]c(CO)nc12` (racemic) [I-369], the IC50 in experiment [1] was 10 to 100 µM. Further, the “ASMS (R3/R0)” value on Rheb was “C (an affinity (R3/R0)<20%)”.
The corresponding values for `Clc1ccc2[nH]ccc2c1Oc1ccccc1` [I-257, 5-chloro-4-phenoxy-1H-indole] are 10 to 100 µM and “C (an affinity (R3/R0)<20%)”.
Regarding `OCc1nc2cc(Sc3ccc(Cl)cc3Cl)c(Cl)c(Cl)c2[nH]1` [I-358, (6,7-dichloro-5-(2,4-dichlorophenylthio)-1H-benzo[d]imidazol-2-yl)methanol], in experiment [1], the IC50 was 10 to 100 µM. The “ASMS (R3/R0)” value at Rheb is “B (an affinity (R3/R0) between 100% and 20%)”.
Turning to “4-((6-chloro-4-(3,4-dichlorophenoxy)-1H-indol-1-yl)methyl)benzoic acid [I-146]”, the IC50 in experiment [1] was below 10 µM. Moreover, the “ASMS (R3/R0)” value on Rheb was “B (an affinity (R3/R0) between 100% and 20%)”.
As to `Cn1ccc2c(Oc3ccccc3F)cccc21` [I-267], the IC50 in experiment [1] was above 3 µM. For the same compound, at Rheb, the “ASMS (R3/R0)” value is recorded as “C (an affinity (R3/R0)<20%)”.
With `CN1CCN(c2ccc(-c3nc4cc(Cl)c(Cl)cc4[nH]3)cc2)CC1` [I-366, 5,6-dichloro-2-(4-(4-methylpiperazin-1-yl)phenyl)-1H-benzo[d]imidazole], the IC50 in experiment [1] fell in the range of 100 to 300 µM. Further, the “ASMS (R3/R0)” value on Rheb is recorded as “A (an affinity (R3/R0)>100%)”.
Turning to `OCc1cc(Sc2ccc(Cl)cc2)c2cc[nH]c2c1` [I-198, (4-(4-chlorophenylthio)-1H-indol-6-yl)methanol], in experiment [1], the IC50 was in the range of 10 to 100 µM. The “ASMS (R3/R0)” value on Rheb is “B (an affinity (R3/R0) between 100% and 20%)”.
As to `Nc1cc(CCOc2c(Cl)c(Cl)cc3[nH]c(CO)nc23)ccn1` [I-382], in experiment [1], the IC50 is 100 to 300 µM. In addition, the “ASMS (R3/R0)” value at Rheb is “C (an affinity (R3/R0)<20%)”.

The record behind these values is patent US11339144B2 (Navitor Pharmaceuticals, Inc., priority 2017, dated 2022).
